Here are results for 5 molecules from patent US20230242585A1, “IMMUNOMODULATORS” (Bristol-Myers Squibb Company, priority 2020, published 2023).

One may read the pIC50 as the negative decadic logarithm of the IC50, by convention in mol/L. A higher pIC50 goes with a low IC50.

pIC50: −log10 of the molar value. Starred links: 1 amine or outer side, 2 acyl side, 3 side chain; linkers in the order of their positions; H or OH if unused. Positions of bridges follow the written chain, without caps; N, C: chain ends. Non-standard residues stand in square brackets, D forms with d. Residues, ends and D or L forms follow the SMILES beside them. X39 = O=C([C@H](CNC[C@H](O)[C@@H](O)[C@H](O)C(O)CO[C@H]1O[C@H](CO)[C@H](O)[C@H](O)[C@H]1O)N[*:1])[*:2]; X47 = O=C([C@H](CNCc1ccccc1O[C@@H]1O[C@H](CO)[C@@H](O)[C@H](O)[C@H]1O)N[*:1])[*:2]; X35 = O=C([C@H](CNC[C@H](O)[C@H](O)[C@@H](O)[C@@H](O)CO)N[*:1])[*:2]; X52 = C[C@H](O)[C@H](O)[C@@H](O)[C@@H](O)CNC[C@H](N[*:1])C(=O)[*:2]; X58 = O=C([C@H](CNC[C@H](O)[C@@H](O)[C@H](O)[C@H](O)CO)N[*:1])[*:2]; Trp(1-CH2COOH) = N[C@@H](Cc1cn(CC(=O)O)c2ccccc12)C(=O)O; Hyp = O=C(O)[C@@H]1C[C@@H](O)CN1; NMeNle = CCCC[C@H](NC)C(=O)O; NMeA = CN[C@@H](C)C(=O)O; Dab = NCC[C@H](N)C(=O)O

T1 sequence (Q9NZQ7 18-239): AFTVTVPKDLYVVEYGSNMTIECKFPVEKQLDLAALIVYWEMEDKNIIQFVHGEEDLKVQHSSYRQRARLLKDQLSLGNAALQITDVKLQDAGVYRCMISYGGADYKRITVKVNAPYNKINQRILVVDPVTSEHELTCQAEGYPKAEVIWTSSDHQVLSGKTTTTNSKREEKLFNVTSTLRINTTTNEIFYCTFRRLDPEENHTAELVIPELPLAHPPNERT

The experiment concerns the target T1, PD-1/PD-L1 (Homo sapiens, UniProt Q9NZQ7).
T1 construct: TVMV protease site (linker) (C); made in house; host or cells: HEK293T cells
The experiment can be described thus: PD-1/PD-L1 Homogenous Time-Resolved Fluorescence (HTRF) binding assay. Particulars: PD-L1-His 10 nM, PD-1-Ig 20 nM. An outline of the steps: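 Compounds preincubated 15 min with PD-L1-His (residues 18-239, 10 nM) in dPBS with 0.1% BSA, 0.05% Tween-20, then PD-1-Ig (residues 25-167, 20 nM) for 15 min. Eu-cryptate anti-Ig (1 nM) and APC anti-His (20 nM) equilibrated 30 min; 665/620 nm ratio read, IC50 derived.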
Background: Time-resolved FRET reads energy transfer from a long-lived donor to a nearby acceptor.
Regarding `CCCC[C@H]1C(=O)N(C)[C@@H](CCCC)C(=O)N[C@@H](CC(C)C)C(=O)N[C@H](C(=O)NCC(N)=O)CSCC(=O)N[C@@H](Cc2ccc(O)cc2)C(=O)N(C)[C@@H](C)C(=O)N[C@@H](CC(N)=O)C(=O)N2CCC[C@H]2C(=O)N[C@@H](CNC[C@H](O)[C@@H](O)[C@H](O)[C@H](O)CO)C(=O)N[C@@H](CC(C)C)C(=O)N2C[C@H](O)C[C@H]2C(=O)N[C@@H](Cc2c[nH]c3ccccc23)C(=O)N[C@@H](CCN)C(=O)N[C@@H](Cc2cn(CC(=O)O)c3ccccc23)C(=O)N1C` [Example 2015] ({CH2CO}-Y[NMeA]NP[X58]L[Hyp]W[Dab][Trp(1-CH2COOH)][NMeNle][NMeNle]LCG-NH2; thioether N-14), the negative-log IC50 (pIC50) is 8.74.
The result for `CCCC[C@H]1C(=O)N(C)[C@@H](CCCC)C(=O)N[C@@H](CC(C)C)C(=O)N[C@H](C(=O)NCC(N)=O)CSCC(=O)N[C@@H](Cc2ccc(O)cc2)C(=O)N(C)[C@@H](C)C(=O)N[C@@H](CC(N)=O)C(=O)N2CCC[C@H]2C(=O)N[C@@H](CNC[C@H](O)[C@H](O)[C@@H](O)[C@@H](O)CO)C(=O)N[C@@H](CC(C)C)C(=O)N2C[C@H](O)C[C@H]2C(=O)N[C@@H](Cc2c[nH]c3ccccc23)C(=O)N[C@@H](CCN)C(=O)N[C@@H](Cc2cn(CC(=O)O)c3ccccc23)C(=O)N1C` [Example 2027] ({CH2CO}-Y[NMeA]NP[X35]L[Hyp]W[Dab][Trp(1-CH2COOH)][NMeNle][NMeNle]LCG-NH2; thioether N-14) reads 9.00; that for `CCCC[C@H]1C(=O)N(C)[C@@H](CCCC)C(=O)N[C@@H](CC(C)C)C(=O)N[C@H](C(=O)NCC(N)=O)CSCC(=O)N[C@@H](Cc2ccc(O)cc2)C(=O)N(C)[C@@H](C)C(=O)N[C@@H](CC(N)=O)C(=O)N2CCC[C@H]2C(=O)N[C@@H](CNC[C@H](O)[C@H](O)[C@@H](O)[C@H](C)O)C(=O)N[C@@H](CC(C)C)C(=O)N2C[C@H](O)C[C@H]2C(=O)N[C@@H](Cc2c[nH]c3ccccc23)C(=O)N[C@@H](CCN)C(=O)N[C@@H](Cc2cn(CC(=O)O)c3ccccc23)C(=O)N1C` [Example 2042] ({CH2CO}-Y[NMeA]NP[X52]L[Hyp]W[Dab][Trp(1-CH2COOH)][NMeNle][NMeNle]LCG-NH2; thioether N-14), 8.17; that for `CCCC[C@H]1C(=O)N(C)[C@@H](CCCC)C(=O)N[C@@H](CC(C)C)C(=O)N[C@H](C(=O)NCC(N)=O)CSCC(=O)N[C@@H](Cc2ccc(O)cc2)C(=O)N(C)[C@@H](C)C(=O)N[C@@H](CC(N)=O)C(=O)N2CCC[C@H]2C(=O)N[C@@H](CNC[C@H](O)[C@@H](O)[C@H](O)C(O)CO[C@H]2O[C@H](CO)[C@H](O)[C@H](O)[C@H]2O)C(=O)N[C@@H](CC(C)C)C(=O)N2C[C@H](O)C[C@H]2C(=O)N[C@@H](Cc2c[nH]c3ccccc23)C(=O)N[C@@H](CCN)C(=O)N[C@@H](Cc2cn(CC(=O)O)c3ccccc23)C(=O)N1C` (some centres unmarked) [Example 2037] ({CH2CO}-Y[NMeA]NP[X39]L[Hyp]W[Dab][Trp(1-CH2COOH)][NMeNle][NMeNle]LCG-NH2; thioether N-14), 7.96.
`CCCC[C@H]1C(=O)N(C)[C@@H](CCCC)C(=O)N[C@@H](CC(C)C)C(=O)N[C@H](C(=O)NCC(N)=O)CSCC(=O)N[C@@H](Cc2ccc(O)cc2)C(=O)N(C)[C@@H](C)C(=O)N[C@@H](CC(N)=O)C(=O)N2CCC[C@H]2C(=O)N[C@@H](CNCc2ccccc2O[C@@H]2O[C@H](CO)[C@@H](O)[C@H](O)[C@H]2O)C(=O)N[C@@H](CC(C)C)C(=O)N2C[C@H](O)C[C@H]2C(=O)N[C@@H](Cc2c[nH]c3ccccc23)C(=O)N[C@@H](CCN)C(=O)N[C@@H](Cc2cn(CC(=O)O)c3ccccc23)C(=O)N1C` [Example 1007] ({CH2CO}-Y[NMeA]NP[X47]L[Hyp]W[Dab][Trp(1-CH2COOH)][NMeNle][NMeNle]LCG-NH2; thioether N-14) gave a pIC50 of 7.92.
